# From ChEMBL document CHEMBL4842343, “1,10-Seco-Eudesmane sesquiterpenoids as a new type of anti-neuroinflammatory agents by suppressing TLR4/NF-κB/MAPK pathways” (Eur J Med Chem, 2021)
# Calls of active or inactive are those of the source. The calls are words filed in the database; no cut-off is given here.
# Assays:
# [1] = test system: BV-2; experiment: Inhibition of TLR4/NF-kappaB signalling pathway in LPS- stimulated mouse BV-2 cells assessed as reduction in MyD88 expression at 0.3 to 10 uM measured after 24 hrs by western blot analysis; format: cell-based; details: dose 0.3-10 µM
# [2] = test system: BV-2; experiment: Inhibition of TNF-alpha production in LPS stimulated mouse BV-2 cells measured after 24 hrs by ELISA; format: functional, cell-based; details: dose 1-10 µM
# [3] = Inhibition of iNOS expression in mouse BV-2 cells at 10 uM measured after 24 hrs by western blot analysis relative to control; format: functional
# [4] = test system: BV-2; experiment: Inhibition of ERK phosphorylation in LPS-stimulated mouse BV-2 cells at 0.3 to 10 uM measured after 2 hrs by western blot analysis; format: cell-based; details: dose 0.3-10 µM
# [5] = test system: BV-2; experiment: Inhibition of NF-kappaB p65 translocation in LPS-stimulated mouse BV-2 cells assessed as distribution of NF-kappaB p65 in nucleus and cytoplasm at 3 uM pretreated for 1 hr followed by LPS stimulation measured after 24 hrs by DAPI staining based immunofluorescence assay; format: cell-based; details: time 25.0 hrs
# [6] = test system: BV-2; experiment: Antineuroinflammatory activity in LPS- stimulated mouse BV-2 cells assessed as upregulation of HO-1 expression measured after 24 hrs by immunoblotting analysis; format: functional, cell-based; details: dose 1-10 µM
# [7] = test system: BV-2; experiment: Inhibition of TNF-alpha production in mouse BV-2 cells at 10 uM measured after 24 hrs by ELISA; format: functional, cell-based
# [8] = test system: BV-2; experiment: Antineuroinflammatory activity in LPS- stimulated mouse BV-2 cells assessed as fold increase in HO-1 expression at 10 uM measured after 24 hrs by immunoblotting analysis relative to control; format: functional
# [9] = test system: BV-2; experiment: Inhibition of TLR4/NF-kappaB signalling pathway in LPS-stimulated mouse BV-2 cells assessed as decrease in CD14 cell surface expression at 10 uM pretreated for 1 hr followed by LPS stimulation and measured after 24 hrs by […] (reference value: 27.2%); format: cell-based; set-up: scale not given: the % may be the effect or the level left; details: time 25.0 hrs
# [10] = test system: BV-2; experiment: Inhibition of PGE2 production in mouse BV-2 cells at 10 uM measured after 24 hrs by ELISA; format: functional, cell-based
# [11] = biological target: MAP kinase p38 (Mus musculus) (UniProt P47811+O08911+Q9WUI1+Q9Z1B7); experiment: Inhibition of p38 MAPK phosphorylation in LPS-stimulated mouse BV-2 cells measured after 2 hrs by western blot analysis; format: cell-based; details: dose 0.3-10 µM
# [12] = test system: BV-2; experiment: Inhibition of iNOS expression in LPS-stimulated mouse BV-2 cells measured after 24 hrs by western blot analysis; format: functional, cell-based; details: dose 1-10 µM
# [13] = Inhibition of iNOS expression in LPS-stimulated mouse BV-2 cells at 10 uM measured after 24 hrs by western blot analysis relative to control; format: functional
# [14] = test system: BV-2; experiment: Inhibition of COX-1 expression in mouse BV-2 cells at 10 uM measured after 24 hrs by western blot analysis; format: functional, cell-based
# [15] = test system: BV-2; experiment: Inhibition of COX-2 expression in mouse BV-2 cells at 10 uM measured after 24 hrs by western blot analysis; format: functional, cell-based
# [16] = Inhibition of LPS-induced NO production in mouse BV-2 cells incubated for 24 hrs by Griess reagent based assay; format: functional, cell-based; details: Mus musculus, BV-2, 24 h; read-out: EC50
# [17] = test system: BV-2; experiment: Potency indes, ratio of OABC to test compound for inhibition of COX-2 expression in LPS-stimulated mouse BV-2 cells at 10 uM measured after 24 hrs by western blot analysis; format: functional
# [18] = Potency indes, ratio of OABC to test compound for Inhibition of iNOS expression in LPS-stimulated mouse BV-2 cells at 10 uM measured after 24 hrs by western blot analysis; format: functional
# [19] = test system: BV-2; experiment: Antineuroinflammatory activity in LPS- stimulated mouse BV-2 cells assessed as conversion of microglia from M1 to M2 phenotype macrophages by measuring IL-10 production at 1 uM measured after 24 hrs by ELISA; format: functional, cell-based
# [20] = Potency index, ratio of OABC EC50 to test compound EC50 for inhibition of LPS-induced NO production in mouse BV-2 cells incubated for 24 hrs by Griess reagent based assay; format: functional
# [21] = test system: BV-2; experiment: Inhibition of PGE2 production in LPS- stimulated mouse BV-2 cells measured after 24 hrs by ELISA; format: functional, cell-based; details: dose 1-10 µM
# [22] = test system: BV-2; experiment: Antineuroinflammatory activity in LPS- stimulated mouse BV-2 cells assessed as conversion of microglia from M1 to M2 phenotype macrophages by measuring arginase-1 level at 10 uM measured after 24 hrs by ELISA; format: functional, cell-based
# [23] = test system: BV-2; experiment: Inhibition of COX-2 expression in LPS-stimulated mouse BV-2 cells measured after 24 hrs by western blot analysis; format: functional, cell-based
# [24] = Effective permeability of the compound in PBS/EtOH buffer (9:1) at […] after 10 hrs by HPLC-UV based PAMPA-BBB assay; format: ADME; details: read-out: permeability
# [25] = test system: BV-2; experiment: Cytotoxicity against LPS-stimulated mouse BV-2 cells assessed as reduction in cell viability at 10 uM measured after 24 hrs by MTT assay relative to control; format: cell-based; details: bv-2, 24 h
# [26] = test system: BV-2; experiment: Inhibition of TLR4/NF-kappaB signalling pathway in mouse BV-2 cells assessed as increase in CD14 cell surface expression at 10 uM pretreated for 1 hr and measured after 24 hrs by flow cytometry analysis (Rvb= 3.8%); format: cell-based; set-up: scale not given: the % may be the effect or the level left; details: time 25.0 hrs
# [27] = test system: BV-2; experiment: Inhibition of COX-1 expression in LPS-stimulated mouse BV-2 cells at 1 to 10 uM measured after 24 hrs by western blot analysis; format: functional, cell-based; details: dose 1-10 µM
# [28] = test system: BV-2; experiment: Inhibition of TLR4/NF-kappaB signalling pathway in LPS- stimulated mouse BV-2 cells assessed as reduction in IRAK1 expression measured after 24 hrs by western blot analysis; format: cell-based; details: dose 0.3-10 µM
smiles,measurement,setting,value
C=C1C(=O)O[C@@H]2CC(CBr)=C([C@@H](C)CCCOC(C)=O)[C@@H](OC(C)=O)[C@H]12,inhibition,[1],inactive
same,inhibition,[2],Dose-Dependent Effect
same,inhibition at 10 µM,[3],12.2%
same,inhibition,[4],inactive
same,inhibition,[5],Active
same,Activity,[6],Dose-Dependent Effect
same,inhibition,[7],inactive
same,fold change (FC),[8],2.8
same,Activity,[9],9.9%
same,inhibition,[10],inactive
same,Activity,[11],Dose-Dependent Effect
same,inhibition,[12],Dose-Dependent Effect
same,inhibition at 10 µM,[13],11.2%
same,inhibition,[14],inactive
same,inhibition,[15],Active
same,EC50,[16],700 nM
same,fold change (FC),[17],4
same,fold change (FC),[18],4
same,Activity,[19],Active
same,Ratio EC50,[20],6
same,inhibition,[21],Dose-Dependent Effect
same,Activity,[22],Active
same,inhibition,[23],Dose-Dependent Effect
same,Papp at 10 h,[24],6.5 ×10⁻⁶ cm/s
same,Activity,[25],90.6%
same,Activity,[26],10.6%
same,inhibition,[27],inactive
same,inhibition,[28],Dose-Dependent Effect
